In the test the target is T1, histamine H4 receptor (Homo sapiens, UniProt Q9H3N8).
T1 construct: expressed in transfected cells; host or cells: CHO cells
Briefly: H4 binding, method 1 ([3H]-histamine filtration binding on CHO cell membranes). As to conditions: for Ki: H4 binding, method 1, Ki calculated from IC50 (Cheng-Prussoff). The procedure:
Cell pellets from CHO cells expressing the histamine H4 receptor were homogenised in ice-cold 50 mM Tris-HCl/0.5 mM CaCl2 buffer containing a protease inhibitor cocktail (Roche®, United Kingdom) using a ground glass homogeniser. Homogenates were centrifuged at 48000 g for 30 min at 4° C. The membrane pellet was resuspended in fresh buffer and the centrifugation step was repeated as described above. The membrane pellet was resuspended in 50 mM Tris-HCl in the same volume as the original cell pellet. Aliquots of membrane preparations were stored at −80° C. and were used for [^3H]-Histamine binding experiments.
Cell membranes (20-35 μg/well) were incubated for 90 minutes shaking at room temperature with 3 nM [2,5-^3H]Histamine dihydrochloride (30-60 Ci/mmol) in 50 mM Tris-HCl (pH 7.4), with or without competing H4 ligands. The reaction was terminated by rapid filtration through 0.5% polyethylenimine-soaked Unifilter GF/B plates (Packard) followed by three washes with 1 ml ice-cold 50 mM Tris-HCl. Filters were dried for 45 min at 45° C. and bound radiolabel was determined using scintillation counting techniques. Non-specific binding was defined with 10 μM JNJ7777120.

T1 sequence (Q9H3N8 whole entry): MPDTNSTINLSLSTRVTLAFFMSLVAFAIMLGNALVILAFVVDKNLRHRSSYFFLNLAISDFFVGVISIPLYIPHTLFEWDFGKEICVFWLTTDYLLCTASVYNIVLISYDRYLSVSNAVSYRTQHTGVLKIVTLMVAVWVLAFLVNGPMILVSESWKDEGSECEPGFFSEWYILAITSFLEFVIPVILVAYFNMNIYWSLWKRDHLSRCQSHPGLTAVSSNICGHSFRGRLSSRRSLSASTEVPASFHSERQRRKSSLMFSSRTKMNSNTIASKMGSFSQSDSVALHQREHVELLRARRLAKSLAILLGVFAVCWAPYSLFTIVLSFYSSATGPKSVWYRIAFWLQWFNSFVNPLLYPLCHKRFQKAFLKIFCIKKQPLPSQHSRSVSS

One may read the Ki as the equilibrium dissociation constant of an inhibitor or competing ligand from its target. As to `CCC(C)CNc1cc(N2CC[C@@H](N)C2)nc(N)n1` (stereo partly drawn) [Example 195, 6-[(3R)-3-Aminopyrrolidin-1-yl]-N^4-(2-methylbutyl)pyrimidine-2,4-diamine], the Ki was 32.6 nM.

As a reminder, the inhibition is the change of the read-out against control, counted positive when it falls. Higher therefore signals strong suppression. For `CC(C)(C)CCNc1cc(N2CC(N3CCOCC3)C2)ncn1` [Example 312, N-(3,3-Dimethylbutyl)-6-(3-morpholin-4-ylazetidin-1-yl)pyrimidin-4-amine], under “1.5 h”, the inhibition at 20 µM was determined as 21%.

Take `CC(C)(C)CCNc1cc(N2CCC(N3CCCC3)CC2)ncn1` [Example 301, N-(3,3-Dimethylbutyl)-6-(4-pyrrolidin-1-ylpiperidin-1-yl)pyrimidin-4-amine]: the “Method 1, activity at top dose (10 μM)” value (top dose 10 μM) is “No activity at top”.

With `CN(C)CCNc1cc(NCC2CC2)ncn1` [Example 194, N-(Cyclopropylmethyl)-N′-[2-(dimethylamino)ethyl]pyrimidine4,6-diamine], the Ki is 32.4 nM.

`CC(C)NC1CN(c2cc(NCC(C)(C)C)nc(N)n2)C1` [Example 145, N^4-(2,2-Dimethylpropyl)-6-[3-(isopropylamino)azetidin-1-yl]pyrimidine-2,4-diamine]: the Ki was 14.3 nM.

With `CNCCNc1cc(NCC(C)(C)C)nc(N)n1` [Example 143, N^4-(2,2-Dimethylpropyl)-N^6-[2-(methylamino)ethyl]pyrimidine-2,4,6-triamine], the inhibition constant Ki is 72.4 nM.

Take `CC[C@H](C)Nc1cc(N2CC(NC)C2)nc(N)n1` [Example 161, 6-[3-(Methylamino)azetidin-1-yl]-N^4-[(1S)-1-methylpropyl]pyrimidine-2,4-diamine]: the Ki is 2.75 nM.

In the case of `CC(C)(C)CNc1cc(N2CCNCC2)nc(N)n1` [Example 156, N^4-(2,2-Dimethylpropyl)-6-piperazin-1-ylpyrimidine-2,4-diamine], the Ki is 2.44 nM.

Regarding `C[C@@H]1CN(c2cc(NCc3ccccc3)nc(N)n2)CCN1` [Example 259, N^4-Benzyl-6-[(3R)-3-methylpiperazin-1-yl]pyrimidine-2,4-diamine], the Ki was 577 nM.

For the compound `CNC1CN(c2cc(NCc3cc(F)ccc3F)nc(N)n2)C1` [Example 130, N^4-(2,5-Difluorobenzyl)-6-[3-(methylamino)azetidin-1-yl]pyrimidine-2,4-diamine], the Ki is 9.69 nM.

Regarding `CNC1CN(c2cc(NC3CCC3)ncn2)C1` [Example 179, N-Cyclobutyl-6-[3-(methylamino)azetidin-1-yl]pyrimidin-4-amine], the inhibitory constant (Ki) was 16.5 nM.

Turning to `CCNc1cc(N2CCCNCC2)nc(N)n1` [Example 175, 6-(1,4-Diazepan-1-yl)-N^4-ethylpyrimidine-2,4-diamine], the Ki is 12.3 nM.

Turning to `CN1C[C@@H]2CN(c3cc(NCCC(C)(C)C)ncn3)C[C@@H]2C1` [Example 3, N-(3,3-Dimethylbutyl)-6-[(3aR*,6aS*)-5-methylhexahydropyrrolo[3,4-c]pyrrol-2(1H)-yl]pyrimidin-4-amine], the Ki is 220 nM.

For the setting “1.5 h”, `CCNc1cc(N2CC(C)(NC)C2)nc(N)n1` [Example 257, N^4-Ethyl-6-[3-methyl-3-(methylamino)azetidin-1-yl]pyrimidine-2,4-diamine] returned an inhibition at 10 µM of 100%.

For the compound `CN[C@@H]1CCN(c2cc(NCc3ccc(F)c(F)c3)nc(N)n2)C1` [Example 277, N^4-(3,4-Difluorobenzyl)-6-[(3R)-3-(methylamino)pyrrolidin-1-yl]pyrimidine-2,4-diamine], the Ki is 1230 nM.

For `Nc1nc(NCC2CC2)cc(N2CC(N)C2)n1` [Example 171, 6-(3-Aminoazetidin-1-yl)-N^4-(cyclopropylmethyl)pyrimidine-2,4-diamine], the Ki is 9.21 nM.

Take `CNC1CCCN(c2cc(NCC(C)C)nc(N)n2)C1` (stereo not drawn) [Example 278, N^4-Isobutyl-6-[3-(methylamino)piperidin-1-yl]pyrimidine-2,4-diamine]: the Ki is 1260 nM.

`CNC1CN(c2cc(NCCOC)nc(N)n2)C1` [Example 182, N^4-(2-Methoxyethyl)-6-[3-(methylamino)azetidin-1-yl]pyrimidine-2,4-diamine]: the inhibition constant Ki is 19.8 nM.

As to `c1nc(NC[C@H]2CCCO2)cc(N[C@H]2CCNC2)n1` [Example 319, N-[(3S)-Pyrrolidin-3-yl]-N′-[(2R)-tetrahydrofuran-2-ylmethyl]pyrimidine-4,6-diamine], the Ki was 6010 nM.

Take `CN[C@@H]1CCN(c2cc(NCC3CCC3)nc(N)n2)C1` [Example 243, N^4-(Cyclobutylmethyl)-6-[(3R)-3-(methylamino)pyrrolidin-1-yl]pyrimidine-2,4-diamine]: the Ki was 266 nM.

In turn, `N[C@@]12C[C@@H]1CN(c1cc(NCC3CC3)ncn1)C2` (relative stereo) [Example 304, (1S*,5R*)-3-{6-[(Cyclopropylmethyl)amino]pyrimidin-4-yl}-3-azabicyclo[3.1.0]hexan-1-amine] registered an inhibition at 10 µM (1.5 h) of 19%.

Take `CNc1cc(N2CC[C@@H](NC)C2)nc(N)n1` [Example 221, N^4-Methyl-6-[(3R)-3-(methylamino)pyrrolidin-1-yl]pyrimidine-2,4-diamine]: the Ki was 90.3 nM.

Consider `CN1CC[C@@H](Nc2cc(NCCC(C)(C)C)ncn2)C1` [Example 8, N-(3,3-Dimethylbutyl)-N′-[(3R)-1-methylpyrrolidin-3-yl]pyrimidine-4,6-diamine], for which the inhibition constant (Ki) is 593 nM.

Regarding `CCCNc1cc(N2CCC(C)(N)C2)nc(N)n1` (stereo not drawn) [Example 264, 6-(3-Amino-3-methylpyrrolidin-1-yl)-N^4-propylpyrimidine-2,4-diamine], the inhibition constant Ki is 704 nM.

`CNC1CN(c2cc(N3CCOC[C@H]3C)nc(N)n2)C1` [Example 263, 4-[3-(Methylamino)azetidin-1-yl]-6-[(3R)-3-methylmorpholiN^4-yl]pyrimidin-2-amine]: the Ki is 626 nM.

In the case of `Nc1nc(NCC2CCCC2)cc(N2CC[C@@H](N)C2)n1` [Example 218, 6-[(3R)-3-Aminopyrrolidin-1-yl]-N^4-(cyclopentylmethyl)pyrimidine-2,4-diamine], the Ki was 80.7 nM.

As for `CNC1(C)CN(c2cc(NC(C)C)ncn2)C1` [Example 261, N-Isopropyl-6-[3-methyl-3-(methylamino)azetidin-1-yl]pyrimidin-4-amine], the Ki is 617 nM.

Take `Nc1nc(NCC2CC2)cc(N2CC[C@@H](N)C2)n1` [Example 215, 6-[(3R)-3-Aminopyrrolidin-1-yl]-N^4-(cyclopropylmethyl)pyrimidine-2,4-diamine]: the Ki is 57.3 nM.

Turning to `Nc1nc(NCC2CC2)cc(N2CCNCC2)n1` [Example 154, N^4-(Cyclopropylmethyl)-6-piperazin-1-ylpyrimidine-2,4-diamine], the inhibition constant (Ki) is 1.71 nM.

`CN[C@@H]1CCN(c2cc(N3CC(F)(F)C3)nc(N)n2)C1` [Example 275, 4-(3,3-Difluoroazetidin-1-yl)-6-[(3R)-3-(methylamino)pyrrolidin-1-yl]pyrimidin-2-amine]: the inhibition constant (Ki) is 1160 nM.

`CCCNc1cc(N2CCN[C@@H](C)C2)ncn1` [Example 258, 6-[(3S)-3-Methylpiperazin-1-yl]-N-propylpyrimidin-4-amine]: the Ki is 509 nM.

Regarding `CC(C)CNc1cc(N2CCC(N)CC2)nc(N)n1` [Example 229, 6-(4-Aminopiperidin-1-yl)-N^4-isobutylpyrimidine-2,4-diamine], the inhibition constant (Ki) is 127 nM.

On to `CCCNc1cc(N2CC(N)C2)nc(N)n1` [Example 232, 6-(3-Aminoazetidin-1-yl)-N^4-propylpyrimidine-2,4-diamine], for which the Ki is 13.9 nM.

As to `CN[C@H]1CCN(c2cc(NCCC(C)(C)C)nc(N)n2)C1` [Example 211, N^4-(3,3-Dimethylbutyl)-6-[(3S)-3-(methylamino)pyrrolidin-1-yl]pyrimidine-2,4-diamine], the inhibitory constant (Ki) is 49.3 nM.

Consider `CC(C)(C)CNc1cc(N2CCN(C3CCCCC3)CC2)ncn1` [Example 260, 6-(4-Cyclohexylpiperazin-1-yl)-N-(2,2-dimethylpropyl)pyrimidin-4-amine], for which 10 µM produced 100% inhibition (1.5 h).

Regarding `CCCNc1cc(N2CC[C@@H](N)C2)nc(N)n1` [Example 219, 6-[(3R)-3-Aminopyrrolidin-1-yl]-N^4-propylpyrimidine-2,4-diamine], the inhibition constant Ki is 82.3 nM.

With `CNC1CN(c2cc(N3CCCCC3)nc(N)n2)C1` [Example 295, 4-[3-(Methylamino)azetidin-1-yl]-6-piperidin-1-ylpyrimidin-2-amine], the Ki is 3180 nM.

For the compound `C[C@H]1CN(c2cc(NCc3ccccc3)nc(N)n2)CCN1` [Example 251, N^4-Benzyl-6-[(3S)-3-methylpiperazin-1-yl]pyrimidine-2,4-diamine], the inhibition constant (Ki) was 355 nM.

For `CNC1CN(c2cc(NCc3ccc(F)cc3F)nc(N)n2)C1` [Example 157, N^4-(2,4-Difluorobenzyl)-6-[3-(methylamino)azetidin-1-yl]pyrimidine-2,4-diamine], the inhibition constant (Ki) was 2.49 nM.

Take `CC(C)(C)CCNc1cc(N2CCCNCC2)ncn1` [Example 280, 6-(1,4-Diazepan-1-yl)-N-(3,3-dimethylbutyl)pyrimidin-4-amine]: the inhibitory constant (Ki) is 1430 nM.

In the case of `CNC1CN(c2cc(NC3CCC3)nc(N)n2)C1` [Example 75, N^4-Cyclobutyl-6-[3-(methylamino)azetidin-1-yl]pyrimidine-2,4-diamine], the inhibition constant (Ki) was 1.07 nM.

On to `CC[C@@H](C)Nc1cc(N2CC[C@@H](NC)C2)ncn1` [Example 146, 6-[(3R)-3-(Methylamino)pyrrolidin-1-yl]-N-[(1R)-1-methylpropyl]pyrimidin-4-amine], for which the inhibitory constant (Ki) is 13.7 nM.
